Source: patent US7138361B2, “Herbicidal heterocycles” (E. I. du Pont de Nemours and Company, priority 2000, dated 2006)

Legend:
Test in all cases: Test D greenhouse paddy-water test in rice
Type in all cases: in vivo
Settings in all cases: 21 days, 0-100 scale
[1] = test system: Echinochloa oryzoides (Eoz)
Source text: (§1) Four plastic pots (ca. 16-cm diameter) per rate were partially filled with sterilized Tama silt loam soil comprised of a 35:50:15 ratio of sand, silt and clay and 2.6% organic matter. Separate plantings for each of the four pots were as follows. Seeds from the U.S. of Heteranthera limosa (Hl), Monochoria vaginalis (Mv), Ammania auriculata (Aa), and Sphenoclea zeylanica (Sz) were planted into one 16-cm pot for each rate. Seeds from the U.S. of Cyperus iria (Ci), Leptochloa fascicularis (Li), one stand of 9 or 10 direct-seeded rice seedlings (Oryza saliva cv. ‘Japonica—M202’; Oss), and one stand of 6 transplanted rice seedlings (Oryza sativa cv. ‘Japonica—M202’; Ost) were planted into one 16-cm pot for each rate. Seeds from the U.S. of Cyperus difformis (Cd), Alisma plantago-aquatica (Ap), and Scirpus mucronatus (Sm) were planted into one 16-cm pot for each rate. Seeds from the U.S. of Echinochloa crus-galli (Ecg), Echinochloa oryzicola (Eor), Echinochloa oryzoides (Eoz) and Echinochloa colonum (Ecc) were planted into one 16-cm pot for each rate. Plantings were sequential so that crop and weed species were at the 2.0 to 2.5-leaf stage at time of treatment.
(§2) Potted plants were grown in a greenhouse with day/night temperature settings of 29.5/26.7° C., and supplemental balanced lighting was provided to maintain a 16-hour photoperiod. Test pots were maintained in the greenhouse until test completion.
(§3) Chemical treatments consisting of Compound 1 of Index Table A (Cmpd 1), daimuron (Cmpd D), quinoclamine (Cmpd Q) and combinations thereof were formulated in acetone. At time of treatment, test pots were flooded to 3 cm above the soil surface, treated by application of test compounds directly to the paddy water, and then maintained at that water depth for the duration of the test. Effects of treatments on rice and weeds were visually evaluated by comparison to untreated controls after 21 days. Plant response ratings are reported on a 0 to 100 scale; where 0 is no effect and 100 is complete control. ND means no data.
(§4) Colby's equation was used to calculate the expected additive herbicidal effect of the mixtures of Compound 1 with daimuron (Cmpd D) and quinoclamine (Cmpd Q). Colby's equation (Colby, S. R “Calculating Synergistic and Antagonistic Responses of Herbicide Combinations,” Weeds, 15(1), pp 20–22 (1967)) calculates the expected additive effect of herbicidal mixtures, and for two active ingredients is of the form: Pa+b=Pa+Pb−(PaPb/100) wherein Pa+b is the percentage effect of the mixture expected from additive contribution of the individual components, • Pa is the observed percentage effect of the first active ingredient at the same use rate as in the mixture, and • Pb is the observed percentage effect of the second active ingredient at the same use rate as in the mixture.

[2] = test system: Leptochloa fascicularis (Li)
Source text: as §1, §2, §3, §4

Ammania auriculata (Aa) = test system: Ammania auriculata (Aa)
Source text: as §1, §2, §3, §4

[3] = test system: Monochoria vaginalis (Mv)
Source text: as §1, §2, §3, §4

Scirpus mucronatus (Sm) = test system: Scirpus mucronatus (Sm)
Source text: as §1, §2, §3, §4

Heteranthera limosa (Hl) = test system: Heteranthera limosa (Hl)
Source text: as §1, §2, §3, §4

[4] = test system: direct-seeded rice seedlings (Oryza saliva cv. 'Japonica—M202'; Oss)
Source text: as §1, §2, §3, §4

[5] = test system: Echinochloa oryzicola (Eor)
Source text: as §1, §2, §3, §4

[6] = test system: Alisma plantago-aquatica (Ap)
Source text: as §1, §2, §3, §4

[7] = test system: Echinochloa colonum (Ecc)
Source text: as §1, §2, §3, §4

Cyperus iria (Ci) = test system: Cyperus iria (Ci)
Source text: as §1, §2, §3, §4

Cyperus difformis (Cd) = test system: Cyperus difformis (Cd)
Source text: as §1, §2, §3, §4

[8] = test system: Echinochloa crus-galli (Ecg)
Source text: as §1, §2, §3, §4

[9] = test system: Sphenoclea zeylanica (Sz)
Source text: as §1, §2, §3, §4

[10] = test system: transplanted rice seedlings (Oryza sativa cv. 'Japonica—M202'; Ost)
Source text: as §1, §2, §3, §4

CC(C)(C)c1ccn(C2SCN(c3cccc(C(F)(F)F)c3)C2=O)n1 (centres unmarked) [Compound 1]
Obs. (observed effect) Eoz ([1]; 32 g/ha alone): 20 | Obs. (observed effect) Eoz ([1]; 64 g/ha alone): 100 | Obs. (observed effect) Eoz ([1]; 125 g/ha alone): 100 | Obs. (observed effect) Eoz ([1]; 250 g/ha alone): 100 | Obs. (observed effect) Eoz ([1]; 500 g/ha alone): 100 | Obs. (observed effect) Lf ([2]; 32 g/ha alone): 90 | Obs. (observed effect) Lf ([2]; 64 g/ha alone): 100 | Obs. (observed effect) Lf ([2]; 125 g/ha alone): 100 | Obs. (observed effect) Lf ([2]; 250 g/ha alone): 100 | Obs. (observed effect) Lf ([2]; 500 g/ha alone): 100 | Obs. (observed effect) Aa (Ammania auriculata (Aa); 32 g/ha alone): 85 | Obs. (observed effect) Aa (Ammania auriculata (Aa); 64 g/ha alone): 95 | Obs. (observed effect) Aa (Ammania auriculata (Aa); 125 g/ha alone): 100 | Obs. (observed effect) Aa (Ammania auriculata (Aa); 250 g/ha alone): 100 | Obs. (observed effect) Aa (Ammania auriculata (Aa); 500 g/ha alone): 100 | Obs. (observed effect) Mv ([3]; 32 g/ha alone): 100 | Obs. (observed effect) Mv ([3]; 64 g/ha alone): 100 | Obs. (observed effect) Mv ([3]; 125 g/ha alone): 100 | Obs. (observed effect) Mv ([3]; 250 g/ha alone): 100 | Obs. (observed effect) Mv ([3]; 500 g/ha alone): 100 | Obs. (observed effect) Sm (Scirpus mucronatus (Sm); 32 g/ha alone): 60 | Obs. (observed effect) Sm (Scirpus mucronatus (Sm); 64 g/ha alone): 100 | Obs. (observed effect) Sm (Scirpus mucronatus (Sm); 125 g/ha alone): 100 | Obs. (observed effect) Sm (Scirpus mucronatus (Sm); 250 g/ha alone): 100 | Obs. (observed effect) Sm (Scirpus mucronatus (Sm); 500 g/ha alone): 100 | Obs. (observed effect) Hl (Heteranthera limosa (Hl); 64 g/ha alone): 40 | Obs. (observed effect) Hl (Heteranthera limosa (Hl); 125 g/ha alone): 90 | Obs. (observed effect) Hl (Heteranthera limosa (Hl); 250 g/ha alone): 100 | Obs. (observed effect) Hl (Heteranthera limosa (Hl); 500 g/ha alone): 100 | Obs. (observed effect) Oss ([4]; 32 g/ha alone): 40 | Obs. (observed effect) Oss ([4]; 64 g/ha alone): 40 | Obs. (observed effect) Oss ([4]; 125 g/ha alone): 70 | Obs. (observed effect) Oss ([4]; 250 g/ha alone): 100 | Obs. (observed effect) Oss ([4]; 500 g/ha alone): 100 | Obs. (observed effect) Eor ([5]; 32 g/ha alone): 0 | Obs. (observed effect) Eor ([5]; 64 g/ha alone): 30 | Obs. (observed effect) Eor ([5]; 125 g/ha alone): 40 | Obs. (observed effect) Eor ([5]; 250 g/ha alone): 100 | Obs. (observed effect) Eor ([5]; 500 g/ha alone): 100 | Obs. (observed effect) Ap ([6]; 32 g/ha alone): 100 | Obs. (observed effect) Ap ([6]; 64 g/ha alone): 100 | Obs. (observed effect) Ap ([6]; 125 g/ha alone): 100 | Obs. (observed effect) Ap ([6]; 250 g/ha alone): 100 | Obs. (observed effect) Ap ([6]; 500 g/ha alone): 100 | Obs. (observed effect) Ecc ([7]; 32 g/ha alone): 0 | Obs. (observed effect) Ecc ([7]; 64 g/ha alone): 100 | Obs. (observed effect) Ecc ([7]; 125 g/ha alone): 100 | Obs. (observed effect) Ecc ([7]; 250 g/ha alone): 100 | Obs. (observed effect) Ecc ([7]; 500 g/ha alone): 100 | Obs. (observed effect) Ci (Cyperus iria (Ci); 32 g/ha alone): 95 | Obs. (observed effect) Ci (Cyperus iria (Ci); 64 g/ha alone): 100 | Obs. (observed effect) Ci (Cyperus iria (Ci); 125 g/ha alone): 100 | Obs. (observed effect) Ci (Cyperus iria (Ci); 250 g/ha alone): 100 | Obs. (observed effect) Ci (Cyperus iria (Ci); 500 g/ha alone): 100 | Obs. (observed effect) Cd (Cyperus difformis (Cd); 32 g/ha alone): 100 | Obs. (observed effect) Cd (Cyperus difformis (Cd); 64 g/ha alone): 100 | Obs. (observed effect) Cd (Cyperus difformis (Cd); 125 g/ha alone): 100 | Obs. (observed effect) Cd (Cyperus difformis (Cd); 250 g/ha alone): 100 | Obs. (observed effect) Cd (Cyperus difformis (Cd); 500 g/ha alone): 100 | Obs. (observed effect) Ecg ([8]; 32 g/ha alone): 0 | Obs. (observed effect) Ecg ([8]; 64 g/ha alone): 85 | Obs. (observed effect) Ecg ([8]; 125 g/ha alone): 100 | Obs. (observed effect) Ecg ([8]; 250 g/ha alone): 100 | Obs. (observed effect) Ecg ([8]; 500 g/ha alone): 100 | Obs. (observed effect) Sz ([9]; 32 g/ha alone): 100 | Obs. (observed effect) Sz ([9]; 64 g/ha alone): 100 | Obs. (observed effect) Sz ([9]; 125 g/ha alone): 100 | Obs. (observed effect) Sz ([9]; 250 g/ha alone): 100 | Obs. (observed effect) Sz ([9]; 500 g/ha alone): 100 | Obs. (observed effect) Ost ([10]; 32 g/ha alone): 15 | Obs. (observed effect) Ost ([10]; 64 g/ha alone): 0 | Obs. (observed effect) Ost ([10]; 125 g/ha alone): 0 | Obs. (observed effect) Ost ([10]; 250 g/ha alone): 20 | Obs. (observed effect) Ost ([10]; 500 g/ha alone): 60
